The nature of series [1]: IAM chromatography, chromatographic hydrophobicity index. The format is physicochemical. The note with it: pH 7.4 mobile phase. How it is done:
Before determining neosubstrate degradation, an obvious effect of fluorination was experimentally specified in this study, i.e., the alteration of lipophilicity. Distribution coefficients at pH 7.4 were determined by an HPLC-based method.[14] As expected, the lipophilicity (elogD7.4) increased due to the introduction of fluorine, and elogD differences were in the range of 0.8 to 1.2 (Table 1). […] The exchange of the glutarimide in 1, 2, 5, and 6 by the barbituric acid unit in 3, 4, 7, and 8 increased lipophilicity by elogD differences of 1.3 to 1.7. Drug-membrane interactions were assessed by a high-throughput HPLC method on an Immobilized Artificial Membrane (IAM) column consisting of monolayers of phospholipids covalently bound to silica particles.[15]
[16] IAM chromatography was performed with a Regis IAM.PC.DD2 column (100 × 4.6 mm, 10 μm, 300 Å) equipped with a guard cartridge at 25 °C as described.[14] Mobile phase A was 50 mM NH4OAc, pH 7.4, mobile phase B was MeCN. The retention times were determined with a gradient of 0 to 95% MeCN from 0 to 6 min, which was kept at 95% until 6.5 min, then dropped to 0% from 6.5 to 7 min, and finally kept at 0% until 9 min. The mobile phase flow rate was 1.5 mL/min. A calibration was performed by plotting the retention times of paracetamol, acetanilide, acetophenone, propiophenone, butyrophenone, valerophenone, and octanophenone against their literature CHI values.[15].

The test system of series [2] is HUVECs. Kind of series: Endothelial cell tube formation assay.
Series [3] in a line: Distribution coefficient at pH 7.4 by HPLC-based method. The following applies: pH 7.4, estimated by an HPLC-based method; for chromatographic logD: HPLC-based method (chromatographic retention), read-out: elogD7.4. The format is physicochemical.
A further series has as its target SALL4 (Homo sapiens, UniProt Q96SW2+Q9UJQ4). Kind of series: SALL4 degradation in HuH6 cells, Western blot. The following applies: 16 h; for Neosubstrate degradation (%) SALL4: 1.0 μM, Western blot densitometry normalized to DMSO; for SALL4 degradation (Western blot, in words): 1.0 μM (0.1 μM in Fig. S2). Background: A western blot detects proteins with antibodies after separation by electrophoresis.

A further series addresses IKZF3 (Homo sapiens, UniProt Q96SW2+Q9UKT9). Kind of series: IKZF3 degradation in MM.1S cells, Western blot. The following applies: 16 h; for Neosubstrate degradation (%) IKZF3: 1.0 μM, Western blot densitometry normalized to DMSO; for IKZF3 degradation (Western blot, in words): 1.0 μM (0.1 μM in Fig. S2).
Series [4] concerns HUVECs. The following applies: cited from earlier work; for Tube formation IC50: endothelial cell tube formation assay, n.i. = no inhibition, tested at 10–100 μM without significant antiangiogenic activity.
Series [5] has as its target human TBD (residues 319–425 of human CRBN). On the set-up: method as in PMID 33310190. The following applies: affinity to human TBD, n.b. = no significant CRBN binding, cited from earlier work.
The next series concerns the target IKZF3-GFP fusion protein (Homo sapiens, UniProt Q96SW2+Q9UKT9). The following applies: MM.1S cells, 16 h, 0.1 μM, 1.0 μM and 10 μM.
For series [6], the system named is HUVECs. Kind of series: CCK-8 cell proliferation assay, HUVEC. The note with it: 48 h. It counts as cell-based, human. A general note: Formazan colour is commonly taken as a measure of viable cells.
Method: (§1) HUVEC cells were cultured as described.[13]
(§2) [19] For the cell proliferation assay, HUVEC (15,000 cells/well) and MM1.S (20,000 cells/well) cells were seeded in a 96-well plate in 50 μL/well and allowed to incubate overnight at 37 °C in 5% CO2. An equal amount of treatment media containing the vehicle (0.5% DMSO), or the test compound was then plated on top of the seeded for 48 hours (HUVEC) or 72 hours (MM1.S). Cell proliferation was evaluated by adding 10 μL of Cell Counting Reagent-8 (CCK-8; Dojindo Laboratories, Rockville, MD) to each well and incubated for 2 hours. Plates were read at absorbance of 450 nm on a microplate reader (SpectraMax iD3, Molecular Devices, San Jose, CA).
The subject of series [7] is multiple myeloma MM1.S cells. As to the kind of experiment: CCK-8 cell proliferation assay, MM1.S. The note with it: 10 μM, 72 h. The format is cell-based.
Method: as §1, §2
For series [8] the following is noted: cited from earlier work.
A short description of series [9]: Metabolic stability in human liver microsomes. In general terms: Microsomes from liver hold many membrane-bound enzymes, among them those of drug oxidation.
Method: Metabolic stability analyses in human liver microsomes were performed by Pharmacelsus (Saarbrücken, Germany) as described.[14].
Setting [10] is: Homo sapiens, HUVEC, 18 h, read-out: Inhibition of tube formation (%).

pKi: −log10 of the molar value. Like-named read-outs stand apart in the source and are kept apart here. Marks after values point to notes of the source that are not given here. Some results are limits rather than exact numbers.

The text below walks through data of article PMC12288609 (Bioorganic & medicinal chemistry letters, 2024).

Chain of SALL4 (Q9UJQ4 whole entry): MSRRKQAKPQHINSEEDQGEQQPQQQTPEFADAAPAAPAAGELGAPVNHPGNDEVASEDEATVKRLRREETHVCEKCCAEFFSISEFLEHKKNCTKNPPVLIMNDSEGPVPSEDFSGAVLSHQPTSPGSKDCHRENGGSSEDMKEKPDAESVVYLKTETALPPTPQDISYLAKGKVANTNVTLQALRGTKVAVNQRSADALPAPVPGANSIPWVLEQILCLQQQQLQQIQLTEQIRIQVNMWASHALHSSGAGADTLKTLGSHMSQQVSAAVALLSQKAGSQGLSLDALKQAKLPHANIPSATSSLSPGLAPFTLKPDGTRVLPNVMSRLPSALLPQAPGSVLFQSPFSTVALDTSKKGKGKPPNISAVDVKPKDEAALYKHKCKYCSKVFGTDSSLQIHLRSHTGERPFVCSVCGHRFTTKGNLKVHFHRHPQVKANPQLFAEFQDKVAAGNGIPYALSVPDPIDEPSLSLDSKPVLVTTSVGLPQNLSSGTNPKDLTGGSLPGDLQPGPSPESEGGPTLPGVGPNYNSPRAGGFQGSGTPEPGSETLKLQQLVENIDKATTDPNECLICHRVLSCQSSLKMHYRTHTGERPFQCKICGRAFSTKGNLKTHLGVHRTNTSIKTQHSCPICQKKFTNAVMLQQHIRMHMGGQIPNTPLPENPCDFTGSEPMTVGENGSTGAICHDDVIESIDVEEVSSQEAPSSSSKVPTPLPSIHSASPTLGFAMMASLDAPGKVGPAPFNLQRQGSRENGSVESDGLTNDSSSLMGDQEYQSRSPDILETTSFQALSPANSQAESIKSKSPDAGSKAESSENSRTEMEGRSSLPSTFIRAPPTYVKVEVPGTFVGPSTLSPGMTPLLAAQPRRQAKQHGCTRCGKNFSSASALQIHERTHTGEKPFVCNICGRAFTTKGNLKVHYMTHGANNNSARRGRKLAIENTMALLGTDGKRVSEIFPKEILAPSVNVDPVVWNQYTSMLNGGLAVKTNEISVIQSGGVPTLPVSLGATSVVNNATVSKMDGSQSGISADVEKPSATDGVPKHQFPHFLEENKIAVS
Chain of SALL4 (Q96SW2 whole entry): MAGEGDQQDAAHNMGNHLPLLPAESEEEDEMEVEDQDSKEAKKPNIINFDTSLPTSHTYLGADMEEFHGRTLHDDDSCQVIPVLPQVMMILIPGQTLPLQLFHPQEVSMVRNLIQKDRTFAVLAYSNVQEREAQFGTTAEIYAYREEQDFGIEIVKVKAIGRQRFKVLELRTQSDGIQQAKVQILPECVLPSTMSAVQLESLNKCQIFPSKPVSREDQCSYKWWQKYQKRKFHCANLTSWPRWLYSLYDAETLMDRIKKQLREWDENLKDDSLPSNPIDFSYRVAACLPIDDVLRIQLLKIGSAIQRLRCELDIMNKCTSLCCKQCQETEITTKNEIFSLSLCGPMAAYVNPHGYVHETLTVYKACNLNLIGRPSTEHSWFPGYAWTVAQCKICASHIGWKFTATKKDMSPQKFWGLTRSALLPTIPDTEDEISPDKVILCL
Chain of SALL4 (Q16531 whole entry partner): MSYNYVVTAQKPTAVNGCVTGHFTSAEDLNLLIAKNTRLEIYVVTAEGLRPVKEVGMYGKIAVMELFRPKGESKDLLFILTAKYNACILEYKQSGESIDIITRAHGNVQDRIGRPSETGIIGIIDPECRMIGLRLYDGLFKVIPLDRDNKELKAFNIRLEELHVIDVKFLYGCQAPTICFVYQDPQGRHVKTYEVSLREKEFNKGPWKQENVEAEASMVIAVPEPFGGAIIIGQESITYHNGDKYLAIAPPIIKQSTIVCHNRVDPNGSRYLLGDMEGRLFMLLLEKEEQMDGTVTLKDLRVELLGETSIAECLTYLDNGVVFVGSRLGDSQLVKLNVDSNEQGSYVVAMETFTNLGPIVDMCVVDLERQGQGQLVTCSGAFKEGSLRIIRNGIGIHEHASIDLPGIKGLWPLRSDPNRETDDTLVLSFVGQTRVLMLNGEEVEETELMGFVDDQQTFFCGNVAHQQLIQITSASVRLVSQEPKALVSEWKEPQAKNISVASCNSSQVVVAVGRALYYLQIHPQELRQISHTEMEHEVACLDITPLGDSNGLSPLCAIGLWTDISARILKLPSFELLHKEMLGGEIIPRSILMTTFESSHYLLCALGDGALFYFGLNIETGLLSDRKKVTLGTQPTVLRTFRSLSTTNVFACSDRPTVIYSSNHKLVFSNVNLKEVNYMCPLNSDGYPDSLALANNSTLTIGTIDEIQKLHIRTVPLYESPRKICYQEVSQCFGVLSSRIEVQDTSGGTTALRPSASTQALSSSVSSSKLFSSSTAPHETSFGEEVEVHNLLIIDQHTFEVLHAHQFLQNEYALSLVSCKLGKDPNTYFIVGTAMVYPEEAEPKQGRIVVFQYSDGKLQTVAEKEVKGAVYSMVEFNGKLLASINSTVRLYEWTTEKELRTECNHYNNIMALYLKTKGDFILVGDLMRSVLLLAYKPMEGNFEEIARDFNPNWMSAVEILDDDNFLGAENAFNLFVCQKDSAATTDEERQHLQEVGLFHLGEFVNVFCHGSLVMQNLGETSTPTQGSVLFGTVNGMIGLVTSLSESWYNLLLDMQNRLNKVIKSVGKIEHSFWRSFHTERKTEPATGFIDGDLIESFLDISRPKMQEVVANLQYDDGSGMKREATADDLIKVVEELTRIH
Chain of SALL4 (Q13619 whole entry partner): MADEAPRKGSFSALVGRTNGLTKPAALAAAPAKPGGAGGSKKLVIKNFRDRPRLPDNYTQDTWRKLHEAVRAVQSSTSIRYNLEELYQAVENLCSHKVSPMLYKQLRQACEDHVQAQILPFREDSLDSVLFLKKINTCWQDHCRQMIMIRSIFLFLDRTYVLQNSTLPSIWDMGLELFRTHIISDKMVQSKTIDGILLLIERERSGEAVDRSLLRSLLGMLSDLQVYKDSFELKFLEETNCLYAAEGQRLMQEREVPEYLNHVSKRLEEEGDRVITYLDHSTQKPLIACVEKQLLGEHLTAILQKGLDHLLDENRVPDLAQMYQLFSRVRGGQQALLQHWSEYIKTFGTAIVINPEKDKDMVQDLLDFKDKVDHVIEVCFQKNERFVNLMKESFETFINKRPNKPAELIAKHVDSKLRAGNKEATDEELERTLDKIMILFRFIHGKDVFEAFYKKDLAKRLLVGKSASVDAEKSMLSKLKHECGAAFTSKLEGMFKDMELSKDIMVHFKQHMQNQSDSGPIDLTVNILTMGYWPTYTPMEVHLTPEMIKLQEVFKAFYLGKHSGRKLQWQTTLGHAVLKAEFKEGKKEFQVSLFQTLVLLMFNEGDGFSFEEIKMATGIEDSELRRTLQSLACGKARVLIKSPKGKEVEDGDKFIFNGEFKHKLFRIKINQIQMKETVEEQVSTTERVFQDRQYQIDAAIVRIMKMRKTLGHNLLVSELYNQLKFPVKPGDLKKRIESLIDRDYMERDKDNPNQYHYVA
Chain of SALL4 (P62877 whole entry partner): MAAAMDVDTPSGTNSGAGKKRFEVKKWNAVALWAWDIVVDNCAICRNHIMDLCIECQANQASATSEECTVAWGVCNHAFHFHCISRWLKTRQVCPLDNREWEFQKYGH
Chain of IKZF3 (Q9UKT9 whole entry): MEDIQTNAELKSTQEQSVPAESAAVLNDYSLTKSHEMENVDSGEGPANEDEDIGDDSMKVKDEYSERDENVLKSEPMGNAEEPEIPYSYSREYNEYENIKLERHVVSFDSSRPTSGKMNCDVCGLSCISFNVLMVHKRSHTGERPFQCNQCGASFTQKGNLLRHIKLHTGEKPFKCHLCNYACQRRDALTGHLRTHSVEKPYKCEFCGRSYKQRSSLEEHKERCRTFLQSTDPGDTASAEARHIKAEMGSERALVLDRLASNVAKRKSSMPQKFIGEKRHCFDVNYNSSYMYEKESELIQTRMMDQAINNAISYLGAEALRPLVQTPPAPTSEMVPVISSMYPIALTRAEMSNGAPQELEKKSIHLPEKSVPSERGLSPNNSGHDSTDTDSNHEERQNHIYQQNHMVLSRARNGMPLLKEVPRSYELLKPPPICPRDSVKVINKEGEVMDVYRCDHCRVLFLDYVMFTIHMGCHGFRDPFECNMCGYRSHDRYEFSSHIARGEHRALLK
Chain of IKZF3 (Q96SW2 whole entry): as the sequence (Q96SW2 whole entry) above
Chain of IKZF3 (Q16531 whole entry partner): as the sequence (Q16531 whole entry partner) above
Chain of IKZF3 (Q13619 whole entry partner): as the sequence (Q13619 whole entry partner) above
Chain of IKZF3 (P62877 whole entry partner): as the sequence (P62877 whole entry partner) above
Chain of IKZF3-GFP fusion protein (Q9UKT9 146-168 limits assumed): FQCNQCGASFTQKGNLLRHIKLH
Chain of IKZF3-GFP fusion protein (Q96SW2 whole entry, the tested form may be a part): as the sequence (Q96SW2 whole entry) above
Chain of IKZF3-GFP fusion protein (Q16531 whole entry partner, the tested form may be a part): as the sequence (Q16531 whole entry partner) above
Chain of IKZF3-GFP fusion protein (Q13619 whole entry partner, the tested form may be a part): as the sequence (Q13619 whole entry partner) above
Chain of IKZF3-GFP fusion protein (P62877 whole entry partner, the tested form may be a part): as the sequence (P62877 whole entry partner) above
Method for IKZF3-GFP fusion protein: This method distinguished direct effects on protein degradation from effects that regulate transcriptional expression.
In brief, the plasmid comprised the IMiD-binding zinc finger 2 (ZF2) of IKZF3 fused to eGFP with mCherry in vector backbone. MM.1S cells were lentivirally transduced with the IKZF3-ZF2 reporter and treated with respective compounds for 16 hours. Flow cytometry was performed for the quantification of eGFP and mCherry mean fluorescence intensity. The eGFP/mCherry ratio was indicative of IKZF3-ZF2 degradation levels. Compound-treated samples were normalized to DMSO-treated samples. Data was obtained with biological replicates (n=3) and representmean± SD.
The Artichoke reporter assay was performed as described.[14] Briefly, HEK293T cells were transfected and virus was harvested. MM1.S cells were transduced and treated with the test compounds. Cells were measured on a Cytoflex (Beckman Coulter) flow cytometer. Live single cells expressing mCherry were gated for FITC and histograms displaying counts were plotted and quantified.

In series [1], `O=C1CCC(NC(=O)c2cc(F)c(F)cc2F)C(=O)N1` (stereo not shown) [Compound 18] yielded a CHIIAM of 11.0. Besides, in the series on HUVECs [2] (100 μM, 18 h, HUVECs, relative to vehicle control, n.i. = no inhibition), the “Inhibition of tube formation (%)” value is “n.i.^d”. Further, the chromatographic logD in [3] is 0.6.
As a reminder, the inhibition is the drop in the measured response relative to a control, in per cent. With `O=C1CCC(NC(=O)c2cc(F)cc(F)c2)C(=O)N1` (stereo not shown) [Compound 15], in series [1], the CHIIAM is on record as 12.3. Also, in the series on HUVECs [2] (setting [10]), the inhibition at 100 µM is 44.3%. Further, in series [3], the chromatographic logD was 0.6.
Taken in the same sequence, the figures for `O=C1CCC(NC(=O)c2ccc(F)cc2)C(=O)N1` (stereo not shown) [Compound 11, N-(2,6-Dioxo-3-piperidyl)-4-fluorobenzamide] were 10.1, 17.9% and 0.1.
`O=C1CCC(NC(=O)c2cc(F)c(F)c(F)c2)C(=O)N1` (stereo not shown) [Compound 19] came in with a CHIIAM in series [1] of 17.9. For the same compound, the inhibition at 100 µM in the series with HUVECs [2] (setting [10]) was found to be 8.1%. The chromatographic logD in series [3] was 1.
For the compound `O=C1CCC(NC(=O)c2ccccc2F)C(=O)N1` (stereo not shown) [Compound 9, N-(2,6-Dioxo-3-piperidyl)-2-fluorobenzamide], the CHIIAM in [1] is listed as 5.7. In addition, the inhibition at 100 µM in the series on HUVECs [2] (setting [10]) turned out to be 13.4%. In addition, the chromatographic logD in series [3] was -0.1.
Regarding `CC(C)N1C(=O)NC(=O)C(C)(NC(=O)c2ccccc2)C1=O` (stereo not shown) [Compound 7], the “Neosubstrate degradation (%) SALL4” value on SALL4 is below 5%. The CHIIAM in [1] is recorded as 20.9. The “Neosubstrate degradation (%) IKZF3” value at IKZF3 is recorded as below 5%. In addition, in series [3], the chromatographic logD was 1.2. In the series on HUVECs [4], the “Tube formation IC50” value is on record as “n.i”. Moreover, the “MST Ki” value in [5] is on record as “n.b”.
Consider `O=C1CCC(NC(=O)c2cc(F)ccc2F)C(=O)N1` (stereo not shown) [Compound 14], for which, in [1], the CHIIAM amounted to 7.2. In addition, the inhibition at 100 µM with HUVECs [2] (setting [10]) amounted to 24.2%. Also, in series [3], the chromatographic logD is 0.3.
`N#Cc1ccc(N2CCN(Cc3ccc(COc4cccc5c4CN([C@H]4CCC(=O)NC4=O)C5=O)cc3)CC2)c(F)c1` [mezigdomide, reference compound]: at SALL4, the “SALL4 degradation (Western blot, in words)” value is “degraded IKZF3 and SALL4”. The “Abundance of IKZF3-GFP (eGFP/mCherry ratio, DMSO-normalized)” value at IKZF3-GFP fusion protein is reported as “induced to a greater extent”. The “IKZF3 degradation (Western blot, in words)” value on IKZF3 is “degraded IKZF3 and SALL4”.
As to `O=C1CCC(N2C(=O)c3c(F)c(F)c(F)c(F)c3C2=O)C(=O)N1` (stereo not shown) [Compound 2, Tetrafluoro-thalidomide], the “Reduction of HUVEC growth” value in the series with HUVECs [6] (10 μM) is given as 48%. On SALL4, the “Neosubstrate degradation (%) SALL4” value was below 5%. In addition, the “Reduction of MM1.S growth” value in [7] is 95%. Moreover, the CHIIAM in [1] worked out at 17.8. Also, the “Neosubstrate degradation (%) IKZF3” value on IKZF3 is below 5%. The “Antiangiogenic activity in the tube formation assay” value in the series with HUVECs [2] (10 μM, HUVECs) was “significantly inhibited tubule formation”. In addition, the inhibition at 10 µM in the series on HUVECs [2] (setting [10]) was 95.3%.
`O=C1CCC(NC(=O)c2cccc(F)c2F)C(=O)N1` (stereo not shown) [Compound 12]: the CHIIAM in series [1] is given as 7.6. Moreover, in the series with HUVECs [2] (setting [10]), the inhibition at 100 µM was found to be 31.1%. The chromatographic logD in series [3] was 0.3.
In the case of `CC(C)N1C(=O)NC(=O)C(C)(NC(=O)c2cc(F)c(F)c(F)c2F)C1=O` (stereo not shown) [Compound 8], the “Neosubstrate degradation (%) SALL4” value at SALL4 is below 5%. This compound also returned a CHIIAM in [1] of 27.9. In addition, the “Neosubstrate degradation (%) IKZF3” value on IKZF3 is listed as below 5%. For the same compound, the chromatographic logD in series [3] is 2.2. Besides, in the series with HUVECs [4], the “Tube formation IC50” value is “n.i”. Moreover, the “MST Ki” value in series [5] was “n.b”.
Regarding `O=C1CCC(NC(=O)c2cc(F)c(F)c(F)c2F)C(=O)N1` (stereo not shown) [Compound 6], the elogD7.4 in [8] (pH 7.4, HPLC-based method) is on record as 0.9^j.
As a reminder, the half-life is the time needed for the level to fall by half in the phase considered. The low end stands for fast loss, the high end for slow loss. A word on the microsomal CLint: it is the capacity of the preparation to metabolise the compound, expressed as a volume cleared per time. For the compound `CC(C)N1C(=O)NC(=O)C(C)(N2C(=O)c3c(F)c(F)c(F)c(F)c3C2=O)C1=O` (stereo not shown) [Compound 4], the “Reduction of HUVEC growth” value in the series on HUVECs [6] (10 μM) is listed as above 95%. The “Neosubstrate degradation (%) SALL4” value at SALL4 was below 5%. Further, the “Reduction of MM1.S growth” value in series [7] is given as above 95%. The CHIIAM in series [1] is reported as 31.6. Besides, the “Neosubstrate degradation (%) IKZF3” value at IKZF3 is below 5%. In series [9], this compound came in with a half-life above 1 h and a microsomal CLint at 1 h of 4.6 µL/min/mg. The elogD7.4 in series [3] was 3.0. Moreover, the “MST Ki” value in series [5] is “n.b”.
Consider `Nc1cccc2c1C(=O)N(C1CCC(=O)NC1=O)C2=O` (stereo not shown) [pomalidomide, reference compound], for which the “SALL4 degradation (Western blot, in words)” value on SALL4 is “degraded IKZF3 and SALL4”. The “Abundance of IKZF3-GFP (eGFP/mCherry ratio, DMSO-normalized)” value on IKZF3-GFP fusion protein is recorded as “induced to a greater extent”. Further, the “IKZF3 degradation (Western blot, in words)” value on IKZF3 was “degraded IKZF3 and SALL4”.
Turning to `O=C1CCC(NC(=O)c2ccc(F)c(F)c2F)C(=O)N1` (stereo not shown) [Compound 17], in series [1], the CHIIAM was 12.2. Moreover, in the series with HUVECs [2] (setting [10]), the inhibition at 100 µM is 30.3%. Besides, the chromatographic logD in [3] is 0.7.
`CC(C)N1C(=O)NC(=O)C(C)(N2C(=O)c3ccccc3C2=O)C1=O` (stereo not shown) [Compound 3]: the “Effect on HUVEC cell growth” value in the series on HUVECs [6] (10 μM) is recorded as “did not affect HUVEC or MM1.S cell growth”. Moreover, the “Neosubstrate degradation (%) SALL4” value on SALL4 is on record as below 5%. In addition, the “Effect on MM1.S cell growth” value in series [7] was “did not affect HUVEC or MM1.S cell growth”. In [1], the CHIIAM is 28.9. Further, the “Neosubstrate degradation (%) IKZF3” value on IKZF3 turned out to be 11%. Also, in series [9], the half-life was above 1 h and the intrinsic metabolic clearance (microsomal CLint) at 1 h amounted to 10.3 µL/min/mg. The chromatographic logD in [3] is 2.2. Also, the “Tube formation IC50” value with HUVECs [4] is on record as “n.i”. Moreover, in series [5], the “MST Ki” value is recorded as “n.b.^i”.
Consider `O=C1CCC(NC(=O)c2cccc(F)c2)C(=O)N1` (stereo not shown) [Compound 10, N-(2,6-Dioxo-3-piperidyl)-3-fluorobenzamide], for which the CHIIAM in series [1] is listed as 10.6. In addition, the inhibition at 100 µM with HUVECs [2] (setting [10]) came to 10.3%. Moreover, in [3], the chromatographic logD is 0.1.
For orientation: pKi means −log10 of the Ki, conventionally taken in molar units. For the compound `O=C1CCC(N2C(=O)c3ccccc3C2=O)C(=O)N1` (stereo not shown) [Compound 1, thalidomide, reference compound], the “Effect on HUVEC proliferation” value in the series on HUVECs [6] (100 μM) is recorded as “decreased neither HUVEC proliferation”. For the same compound, the CHIIAM in series [1] turned out to be 12.5. In addition, the chromatographic logD in [3] was 0.5. The “Block of tube formation” value in the series with HUVECs [4] (concentration range 12.5–100 μM) is “failed to significantly block tube formation”. For the same compound, the “Tube formation IC50” value in the series with HUVECs [4] is listed as “n.i.^h”. Moreover, the pKi in series [5] (read-out: MST Ki) is 5.07.
On to `O=C1CCC(NC(=O)c2ccccc2)C(=O)N1` (stereo not shown) [Compound 5], for which the elogD7.4 in [8] (pH 7.4) is listed as −0.3^j.
Regarding `O=C1CCC(NC(=O)c2ccc(F)cc2F)C(=O)N1` (stereo not shown) [Compound 13], the CHIIAM in series [1] was determined as 7.2. Further, the inhibition at 100 µM in the series on HUVECs [2] (setting [10]) is 35.8%. For the same compound, the chromatographic logD in series [3] is 0.3.
Taken in the same sequence, the figures for `O=C1CCC(NC(=O)c2ccc(F)c(F)c2)C(=O)N1` (stereo not shown) [Compound 16] were 13.6, 15.5% and 0.6.
